PubChem BioAssay AID463199 (Broad Institute, 2010)
Calls of active or inactive are those of the source.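 Rule for the calls: active = AC50, the dose giving half-maximal effect, exceeds a fixed cutoff for a compound that rescues yeast growth under heat; inactive = the rest, inconclusive results apart.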

These compounds were tested on S. cerevisiae Burl-1 ts mutant growth, BacTiter-Glo, 38.5C 24 h (assay: growth induction of Burl-1 ts yeast mutant, dose response, counter-screen for SUMOylation pathway inhibitor project, whole organism, S. cerevisiae, luminescence (AID 463199)).

SMILES	AC50
O=C(COc1ccccc1)Nc1ccc(OC(F)(F)C(F)F)c(NC(=O)COc2ccccc2)c1	> 42 µM (inactive)
CCOc1ccc(CCNC(=O)COC(=O)c2cccc(OC)c2O)cc1OCC	> 42 µM (inactive)
Cc1ccc(S(=O)(=O)N(C)CC(=O)O/N=C(\N)c2ccccn2)cc1	40.6 µM
O=C1NC2(CCCCC2)NN1c1ccccc1	> 42 µM (inactive)
CN1C(=O)C(=Cc2ccc(N3CCCCC3)o2)C(=O)N(C)C1=S	> 42 µM (inactive)
COC(=O)c1ccc2[nH]c(C(C)(C)O)c(C)c2c1	> 42 µM (inactive)
NC(=O)c1ccccc1NC(=O)c1ccc2c(c1)OCO2	> 42 µM (inactive)
CCCCc1ccc(NC(=S)NCc2cccs2)cc1	> 42 µM (inactive)
Cc1sc2nc(CN3CCCC3)nc(NCc3ccncc3)c2c1C	> 42 µM (inactive)
CC1CCCC(N2C(=O)NC(NC(=O)c3ccco3)(C(F)(F)F)C2=O)C1C (stereo not given)	> 42 µM (inactive)
C/C=C\C=C/C(=O)Nc1cccc(C2=NOC3(C2)C[C@@H](C(N)=O)N(C(=O)c2ccccc2)C3)c1 (stereo not given in full)	> 42 µM (inactive)
CC1=CS(=O)(=O)CC1Sc1ncn[nH]1 (stereo not given)	> 42 µM (inactive)
Cc1ccc(-c2nc(CS(=O)(=O)CC(=O)NC3CCCCC3C)c(C)o2)cc1 (stereo not given)	> 42 µM (inactive)
CC1CCN(C(=O)c2[nH]cnc2C(=O)NCC(=O)OCc2ccccc2)CC1	> 42 µM (inactive)
Cc1nc2ccccc2c2ncccc12	> 42 µM (inactive)
O=C(COc1cccnc1[N+](=O)[O-])Nc1ccc2c(c1)CCC2	> 21 µM (inactive)
CN1c2ccccc2-c2nc3ccccc3n2C1c1ccncc1 (stereo not given)	> 42 µM (inactive)
COc1ccc(-c2c(C)nn3c(C)cc(C)nc23)cc1	> 42 µM (inactive)
O=C(CCC(F)(F)F)N1CCCC(CO)(CCc2ccccc2)C1 (stereo not given)	> 42 µM (inactive)
CC(c1ccccn1)N(CCN(C)C)C(=S)Nc1cccc(F)c1 (stereo not given)	> 42 µM (inactive)
Cc1nc(SCC(=O)O)n[nH]1	> 42 µM (inactive)
O=C(Oc1ccccc1N1C(=O)C2CC=CCC2C1=O)c1ccc(Br)cc1 (stereo not given)	> 42 µM (inactive)
CCn1cc(CCCC(=O)NCc2ccccc2OC)c2ccccc21	> 42 µM (inactive)
CCN1CCCC(NC(=O)c2scc3c2CCCC3)C1 (stereo not given)	> 42 µM (inactive)
CC(=O)N1CCCc2cc(S(=O)(=O)Nc3ccc(C)cc3C)ccc21	> 42 µM (inactive)

SMILES	AC50
CCc1ccc(-c2nc(SCC(=O)N3CCOCC3)n[nH]2)cc1	> 42 µM (inactive)
CCOC(=O)N1CCC(NS(=O)(=O)c2ccc(C)c(Cl)c2)CC1	> 42 µM (inactive)
C[C@@]12C(=O)Nc3cc(F)ccc3C(=O)N1[C@H]1c3ccccc3OC[C@@H]1[C@@H]2c1ccccc1	> 42 µM (inactive)
COc1cc(C)ccc1OCCCOc1ccccc1Br	> 42 µM (inactive)
CCN1C(=S)N[C@@H](CCc2ccccc2)C(C(=O)OC)=C1C	> 42 µM (inactive)
CCN1CCCC1CN(Cc1cc2ccc(C)cc2[nH]c1=O)C(=S)Nc1ccc(OC)cc1OC (stereo not given)	> 42 µM (inactive)
CC(=O)N1N=C(c2ccc(C(C)(C)C)cc2)OC1(C)C	> 42 µM (inactive)
Cc1cccc(N/N=C/c2c(O)[nH]c(=S)[nH]c2=O)c1	> 42 µM (inactive)
COc1cccc(/C=C2\SC(N3CCC(C)CC3)=NC2=O)c1OC	> 42 µM (inactive)
c1ccc(CNc2ncnc3sc4c(c23)CCC4)nc1	> 42 µM (inactive)
CCC(CC)C(=O)Nc1ccc(S(=O)(=O)Nc2nccs2)cc1	26 µM
COCCNC(=O)C(=O)NCC1OCCN1C(=O)c1ccc(Cl)cc1 (stereo not given)	> 42 µM (inactive)
COc1cccc(C2C(C(C)=O)=C(O)C(=O)N2CCc2c[nH]c3ccccc23)c1 (stereo not given)	> 42 µM (inactive)
CCOC(=O)CCN(c1ccccc1)S(=O)(=O)c1ccc(-c2ccc(=O)[nH]n2)s1	> 42 µM (inactive)
CC(C)Sc1ccc(C(=O)Nc2ccc(F)cc2F)cn1	> 42 µM (inactive)
CCN(CC)c1ccc(N=Cc2c(O)n(Cc3ccccc3)c(=O)[nH]c2=O)cc1	> 42 µM (inactive)
CCN(C(=O)COC(=O)c1cc([N+](=O)[O-])ccc1N1CCOCC1)C1CCCCC1	> 42 µM (inactive)
O=c1[nH]nc(Cc2ccc(-c3ccccc3Cl)o2)c2ccccc12	> 42 µM (inactive)
Cc1cc(C)c[n+](-c2nc3ccccc3nc2[N-]S(=O)(=O)c2ccc(Br)s2)c1	> 42 µM (inactive)
COC(=O)c1ccc(Cn2cc(Cl)cn2)cc1	> 42 µM (inactive)
Clc1ccc(CONc2ncnc3nonc23)c(Cl)c1	9.28 µM
Cc1ccc(S(=O)(=O)NCC(=O)OCC(=O)c2ccc(Br)s2)cc1	> 42 µM (inactive)
C/C=C(/C)C(=O)OC1c2c(ccc3ccc(=O)oc23)OC(C)(C)C1OC(=O)/C(C)=C\C (stereo not given)	> 42 µM (inactive)
Cc1sc(NC(=O)c2ccco2)c(C(c2ccc(F)cc2)N2CCN(C)CC2)c1C (stereo not given)	> 42 µM (inactive)
CCN(CC)C(=O)CSc1nnc(SCc2ccc(Cl)cc2)s1	> 42 µM (inactive)

SMILES	AC50
O=C1CN(C(=O)COC(=O)CCNS(=O)(=O)c2ccc(Cl)cc2)c2ccccc2N1	> 42 µM (inactive)
COc1cc2c(=O)n(CCC(=O)NCC3CCCO3)c(=O)n(CC(=O)Nc3ccccc3C)c2cc1OC (stereo not given)	> 42 µM (inactive)
S=c1[nH]ccn1-c1cccc(Cl)c1	> 42 µM (inactive)
COc1ccccc1-n1c(O)c(/C=C2\C=Nc3ccccc32)c(=O)[nH]c1=O	> 42 µM (inactive)
Cn1c(=O)c2c(ncn2CC(=O)OCC(=O)Nc2ccc(Cl)cc2)n(C)c1=O	> 42 µM (inactive)
O=C(/C(=N\Nc1ccc(Br)cc1)Sc1nnnn1-c1ccccc1)c1ccccc1	> 42 µM (inactive)
CN1C(=S)SC2CS(=O)(=O)CC21C (stereo not given)	> 21 µM (inactive)
CC(=O)Nc1ccc(S(=O)(=O)Nc2ccc3c(c2)C(=O)OC3)cc1	> 42 µM (inactive)
Cc1ccc(N(CC(=O)NCCc2ccc(Cl)cc2)S(=O)(=O)c2c(C)noc2C)cc1	> 42 µM (inactive)
O=C(OCC(=O)N1CCN(Cc2ccccc2)CC1)c1ccc(Cl)cc1	> 42 µM (inactive)
CN(C)c1cccc(C(=O)Nc2cc(C(F)(F)F)ccc2-n2cnc3ccccc32)c1	> 42 µM (inactive)
Cc1nc(N2CCN(c3ccccn3)CC2)c2c(C)c(C(=O)N3CCN(c4ccccc4F)CC3)sc2n1	> 42 µM (inactive)
CCOc1ccc(/C=N/NS(=O)(=O)c2ccc(C)cc2)cc1OC	> 42 µM (inactive)
CCOC(=O)c1c(C)n(C)c2cc(-c3ccc(C)cc3)c(O)cc12	> 42 µM (inactive)
Cc1sc2ncn(C(C)C(=O)OC3CCCCC3)c(=O)c2c1C (stereo not given)	> 42 µM (inactive)
COC(=O)c1cc(Cl)c(NC(=O)C(C)C)cc1OC	> 42 µM (inactive)
CSc1cccc(NC(=S)N2CCCN(Cc3ccccc3F)C2)c1	> 42 µM (inactive)
CCc1cccc(C)c1NC(=O)CSc1nnc(-c2cc3cc(Br)ccc3o2)n1CC	> 42 µM (inactive)
O=S(=O)(c1cccc(-c2nnco2)c1)N1CCCC1	> 42 µM (inactive)
COC(=O)C1=C(C)N(Cc2ccccc2)C(=S)N[C@H]1c1cccc(F)c1	> 42 µM (inactive)
CCN(CC)S(=O)(=O)c1ccc(C(=O)NCCc2cc3c(OC)ccc(OC)c3[nH]c2=O)cc1	> 42 µM (inactive)
COc1ccccc1CNCc1cc(OC)c(OC)c(OC)c1	> 42 µM (inactive)
O=C(CCNC(=O)c1ccccc1)Nc1cccnc1	> 42 µM (inactive)
COc1ccc(OCCC(=O)c2ccc(OC)cc2)cc1	> 42 µM (inactive)
O=C(Cn1cnc2ccccc2c1=O)c1ccc(OC(F)F)cc1	> 42 µM (inactive)

SMILES	AC50
COC(=O)c1ccccc1NC(=O)CSc1nnnn1CC(=O)O	> 42 µM (inactive)
O=C(COC(=O)/C=C/c1ccco1)Nc1ncc(C(F)(F)F)cc1Cl	> 42 µM (inactive)
O=C(CCC1CCCN(C(=O)Cc2cccc(F)c2)C1)N1CCN(c2ccccn2)CC1 (stereo not given)	> 42 µM (inactive)
CC1=Nc2ccccc2/C1=C\c1nc(-c2ccccc2)oc1O	> 42 µM (inactive)
CCCCCCNc1c(C(=O)OCC)c(=O)[nH]c2ccccc12	> 42 µM (inactive)
CCOC(=O)C1CCN(C(=O)COc2ccc(S(=O)(=O)N3CCOCC3)cc2C)CC1	> 42 µM (inactive)
Cc1c(C2(O)CCCCC2)[nH]c2ccc(C#N)cc12	> 42 µM (inactive)
CC1(C)c2[nH]c3ccccc3c2C[C@H]2C(=O)N(Cc3cccc(F)c3)C(=O)N21	> 42 µM (inactive)
C=CCn1c(CCC)nc2ccccc21	> 42 µM (inactive)
COc1ccc(N=C2SC(C(=O)O)CC(=O)N2Cc2ccc(OC)c(OC)c2)cc1 (stereo not given)	> 42 µM (inactive)
CCCc1nc2c(nnn2Cc2ccccc2F)c(=O)[nH]1	> 42 µM (inactive)
CCOc1ccc(N(C(C)C(=O)NC(C)CC)S(C)(=O)=O)cc1 (stereo not given)	> 42 µM (inactive)
CO/N=C/c1ccc(Oc2ccc(C)cc2)nc1	> 42 µM (inactive)
CC1(OC(=O)C2CCCC2)C(=O)C=C2C=C(c3ccsc3)OC=C2C1=O (stereo not given)	> 42 µM (inactive)
COc1cc(-c2nnc(SCC#CCO)o2)cc(OC)c1OC	> 42 µM (inactive)
NC(=S)N/N=C/c1cccc(O)c1O	> 42 µM (inactive)
Cc1c(NC(=O)CN2C(=O)NC(C)(c3ccc(OC(F)F)cc3)C2=O)c(=O)n(-c2ccccc2)n1C (stereo not given)	> 42 µM (inactive)
Cc1ccc(C(=O)N/C(=C\c2cccs2)C(=O)NCCc2c[nH]c3ccccc23)cc1	> 42 µM (inactive)
COc1cc2c(cc1OC)CN(S(=O)(=O)c1cccc(F)c1)CC2	> 42 µM (inactive)
CCC(C)(C(=O)NC1CCCC1)N(C(=O)c1ccccn1)c1ccc(C)cc1 (stereo not given)	> 42 µM (inactive)
O=C(NCCCn1ccnc1)Nc1cccc2ccccc12	> 42 µM (inactive)
CC1(C)CC(=O)C(CC2CCCCC2=O)C(=O)C1 (stereo not given)	> 42 µM (inactive)
O=C(O)Cc1sc(Nc2ccccc2)nc1-c1cccs1	> 42 µM (inactive)
O=C(Nc1ccc(OC(F)(F)F)cc1)c1ccc2ccccc2n1	> 42 µM (inactive)
CC(C)[N+]1(C)[C@@H]2CC[C@@H]1CC(OC(=O)C(CO)c1ccccc1)C2 (stereo not given in full)	> 42 µM (inactive)
